Test results from PubChem BioAssay (NCI).
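Dose response: 5 concentrations. Exposure: 48 h. Format: 96-well plates. Endpoint: linear interpolation; highest concentration if not reached. GI50 = concentration required for 50% inhibition of growth. TGI marks complete inhibition of growth.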

Experiments:
Experiment in all cases: DTP human tumour cell line panel, 48 h
[1] = tested on: NCI-H23 lung
[2] = tested on: NCI-H460 lung
[3] = tested on: NCI-H522 lung
[4] = tested on: NCI/ADR-RES ovarian
[5] = tested on: OVCAR-3 ovarian
[6] = tested on: OVCAR-4 ovarian
[7] = tested on: OVCAR-5 ovarian
[8] = tested on: OVCAR-8 ovarian
[9] = tested on: PC-3 prostate
[10] = tested on: RPMI-8226 leukemia
[11] = tested on: RXF 393 renal
[12] = tested on: SF-268 CNS
[13] = tested on: SF-295 CNS
[14] = tested on: SF-539 CNS
[15] = tested on: SK-MEL-2 melanoma
[16] = tested on: SK-MEL-28 melanoma
[17] = tested on: SK-MEL-5 melanoma
[18] = tested on: SK-OV-3 ovarian
[19] = tested on: SN12C renal
[20] = tested on: SNB-19 CNS
[21] = tested on: SNB-75 CNS
[22] = tested on: SR leukemia
[23] = tested on: SW-620 colon
[24] = tested on: T-47D breast
[25] = tested on: TK-10 renal
[26] = tested on: U251 CNS
[27] = tested on: UACC-257 melanoma
[28] = tested on: UACC-62 melanoma
[29] = tested on: UO-31 renal

`N#Cc1c(NC(=O)c2ccc(C(O)(C(F)(F)F)C(F)(F)F)cc2)sc2c1CCC(=O)C2` showed a GI50 [1] of 1140 nM, a TGI [1] of 2780 nM and a GI50 [2] of 2730 nM. It also gave a TGI [2] of 8490 nM, a GI50 [3] of 363 nM and a TGI [3] of 1590 nM. The GI50 [4] was 2270 nM, the TGI [4] was 6780 nM and the GI50 [5] was 1230 nM. The TGI [5] was 2530 nM, the GI50 [6] was 1450 nM and the TGI [6] was 3390 nM. The GI50 [7] was 1670 nM, the TGI [7] was 3380 nM and the GI50 [8] was 2270 nM. For the same molecule, the TGI [8] was 9400 nM, the GI50 [9] was 325 nM and the TGI [9] was 1940 nM. For the same molecule, the GI50 [10] was 434 nM, the TGI [10] was > 100000 nM and the GI50 [11] was 549 nM. The TGI [11] was 2080 nM, the GI50 [12] was 2370 nM and the TGI [12] was 7270 nM. The GI50 [13] was 2130 nM, the TGI [13] was 5240 nM and the GI50 [14] was 539 nM. The TGI [14] was 1710 nM, the GI50 [15] was 2140 nM and the TGI [15] was 4360 nM. The GI50 [16] was 1290 nM, the TGI [16] was 2760 nM and the GI50 [17] was 1580 nM. It also gave a TGI [17] of 2930 nM, a GI50 [18] of 2880 nM and a TGI [18] of 8160 nM. It also gave a GI50 [19] of 1290 nM, a TGI [19] of 3330 nM and a GI50 [20] of 3440 nM. It also gave a TGI [20] of 11900 nM, a GI50 [21] of 1310 nM and a TGI [21] of 4390 nM. The GI50 [22] was 546 nM, the TGI [22] was > 34700 nM and the GI50 [23] was 354 nM. It also gave a TGI [23] of 1540 nM, a GI50 [24] of 496 nM and a TGI [24] of 2330 nM. It also gave a GI50 [25] of 2380 nM, a TGI [25] of 8700 nM and a GI50 [26] of 933 nM. The TGI [26] was 2710 nM, the GI50 [27] was 1830 nM and the TGI [27] was 4100 nM. For the same molecule, the GI50 [28] was 1390 nM, the TGI [28] was 2810 nM and the GI50 [29] was 682 nM. The TGI [29] was 2000 nM.
